Ends that are not written are not given here.
Experiments:
PAI-1 [1] = target: T1, PAI-1 (Homo sapiens, UniProt P05121); assay: Kinetics of peptide annealing: residual PAI inhibitory activity assayed with β-trypsin and S-2222; type: biochemical; settings: for kobs / k: 25° C.; for half-life of PAI-1 decreased to: summary of Example 2, peptide concentration not given; for IC50: FIG. 2, read-out: IC50 for the inactivation of PAI-1
T1 construct: made in house; host or cells: E. coli (vector pET3a)
Experimental: PAI-1 (6.4 μM) was incubated with increasing concentrations of each peptide at 23° C. and the (T1/2) of PAI-1 inactivation was determined by measuring the PAI-1 activity remaining over time.
Peptides were dissolved in 1 mM HCl+1% TWEEN-80 (the three PAI peptides) (SEQ ID NOS: 1-3), or in 0.1M HEPES (SEQ ID NOS: 4-5), 0.1M NaCl, 0.1% PEG-8000, pH […] (the two consensus peptides). Peptides were annealed to active PAI by incubation of active PAI in 0.1M HEPES, 0.1M NaCl, 0.1% PEG-8000, pH 7.4 with a peptide in its solvent. Ten percent of the final incubation mixture consisted of the peptide solvent. Incubation was carried out at 25° C. until no PAI inhibitory activity remained as determined by kinetics rate assays with trypsin, described below. The final concentration of PAI in the incubation mixture was either 0.9 μM (for kinetics assays) or 6.3 μM (for gels and purification). The peptide concentrations varied greatly due to the individual solubilities and rates of insertion of each peptide. These concentrations are given in the legends of the appropriate figures.
During annealing of 0.9 μM PAI with a peptide, the residual inhibitory activity of PAI was measured after varying incubation times by assaying an aliquot of the sample with β-trypsin. Trypsin (1 nM final concentration) was added to the chromogenic substrate S-2222 (950 μM) with 27 nM PAI sample. The absorbance at 405 nm was measured continuously for at least 12.5 min in a Shimadzu UV-265 UV-visible spectrophotometer. The pseudo-first order rate constant of trypsin is an indirect measure of the amount of PAI that has lost inhibitory activity due either to annealing or to becoming latent. The rate constant of controls containing the peptide solvent but no peptide was subtracted from that of the experimental assays in order to correct for the effect of the simultaneous change of PAI from the active to the latent state.

PAI-1 [2] = target: T1, PAI-1; assay: as above; type: biochemical; settings: for lowest PAI-1 functional half-life obtained with increasing concentrations of peptide: 9.0 hr in the absence of peptide
normal human plasma = assay: Activated partial thromboplastin time (APTT) in normal human plasma, with porcine coronary thrombus extract; type: biochemical
Experimental: Platelets contain several factors that inhibit heparin, including platelet factor 4, heparatinase, and histidine-rich glycoprotein. In an attempt to study potential heparin resistance within the microenvironment of the coronary thrombus the coronary thrombi previously analyzed for PAI-1 content were also assessed for their capacity to inhibit heparin in vitro (Eitzman et al., 1994). Pharmaceutical grade, unfractionated heparin was added to normal human plasma in sufficient quantity (0.12 U/mL) to prolong the activated partial thromboplastin time (APTT) to approximately 2× control. APTT determinations were then repeated after the addition of 2.5 μL of thrombus extract per 100 μL of heparinized plasma.
Similar experiments were also performed using recombinant hirudin as anticoagulant. In these experiments, hirudin (0.17 μg/mL) was used to prolong the APTT to approximately twice control values. However, unlike the case with heparin, thrombus extracts had no effect on capacity of hirudin to prolong the APTT (FIG. 9a).

PAI-1 [3] = target: T1, PAI-1; assay: Native gel electrophoresis of PAI incubated with peptide; type: binding
Experimental: SDS-polyacrylamide gel electrophoresis (SDS-PAGE) under nonreducing conditions was carried out according to the method of Laemmli (Laemmli, 1970) on 10% gels. Native gel electrophoresis with 5% gels was carried out by omitting SDS and boiling from Laemmli's method. All gels were stained with Coomassie brilliant blue. Gels of PAI-peptide samples were scanned with an LKB Ultroscan XL Laser Densitometer to determine the relative amounts of peptide-annealed and latent PAI.
Four of the five peptides have a net negative charge due to glutamic acid residues and the free carboxy terminus (FIG. 1). The wtPAI 8-mer has a net -1 charge (the carboxy terminus). The V→E PAI 8-mer (SEQ ID NO:3) and consensus 8-mer (SEQ ID NO:4) each have a -2 charge (the glutamic acid residue and the carboxyl group). […] The PAI 14-mer (SEQ ID NO:1) is uncharged since it contains no glutamic acid and the arginine and carboxyl groups neutralize each other. Because of the negative charges of 4 of the peptides, native gels of PAI annealed to these peptides should show a band which migrates more quickly than the band representative of free active PAI. Similarly, if one of these peptides is incubated with PAI but fails to form a strong interaction with PAI, native gels should show a band which migrates identically to the free PAI.

T1 sequence (P05121 24-402): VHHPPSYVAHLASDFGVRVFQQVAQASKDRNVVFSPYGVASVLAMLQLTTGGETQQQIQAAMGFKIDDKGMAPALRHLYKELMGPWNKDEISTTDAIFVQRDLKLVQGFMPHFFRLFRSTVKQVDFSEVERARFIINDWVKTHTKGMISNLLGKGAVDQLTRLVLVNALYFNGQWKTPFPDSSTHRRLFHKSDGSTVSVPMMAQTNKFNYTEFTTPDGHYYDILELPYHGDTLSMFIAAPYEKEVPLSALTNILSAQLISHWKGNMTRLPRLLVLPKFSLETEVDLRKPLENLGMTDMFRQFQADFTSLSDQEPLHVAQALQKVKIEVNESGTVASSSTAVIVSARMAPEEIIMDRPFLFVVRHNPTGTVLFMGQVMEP

Ac-TEAAAATGAAATGR [SEQ ID NO: 5, TEAAAATGAAATGR]
kobs (PAI-1 [1]; peptide 1 mM): .097 h⁻¹ | half-life of PAI-1 decreased to (PAI-1 [1]): 0.2 h | half-life of PAI inactivation (PAI-1 [2]; 0.9 μM PAI, 1.2 mM peptide): about 12 min | k (PAI-1 [2]; peptide 1 mM, 25° C.): .027 M⁻¹ s⁻¹ | t1/2 of PAI-1 inactivation (PAI-1 [2]; peptide 1 mM, 25° C.): 7.2 h | k (PAI-1 [2]; peptide 1.3 mM, 25° C.): .75 M⁻¹ s⁻¹ | kobs (PAI-1 [2]; peptide 1.3 mM, 25° C.): 3.4 h⁻¹ | t1/2 of PAI-1 inactivation (PAI-1 [2]; peptide 1.3 mM, 25° C.): .20 h

Ac-TEAAAATG [SEQ ID NO: 4, Thr-Glu-Ala-Ala-Ala-Ala-Thr-Gly]
IC50 (PAI-1 [1]): 1600 µM | kobs (PAI-1 [1]; peptide 2.5 mM): .21 h⁻¹ | kobs (PAI-1 [1]; peptide 5.04 mM): .38 h⁻¹ | half-life of PAI-1 decreased to (PAI-1 [1]): 1.3 h | lowest PAI-1 functional half-life obtained with increasing concentrations of peptide (PAI-1 [2]; 25° C.): 1.2 h | k (PAI-1 [2]; peptide 1.5 mM, 25° C.): .024 M⁻¹ s⁻¹ | kobs (PAI-1 [2]; peptide 1.5 mM, 25° C.): .13 h⁻¹ | t1/2 of PAI-1 inactivation (PAI-1 [2]; peptide 1.5 mM, 25° C.): 5.4 h | k (PAI-1 [2]; peptide 2.5 mM, 25° C.): .024 M⁻¹ s⁻¹ | t1/2 of PAI-1 inactivation (PAI-1 [2]; peptide 2.5 mM, 25° C.): 3.3 h | k (PAI-1 [2]; peptide 3.5 mM, 25° C.): .022 M⁻¹ s⁻¹ | kobs (PAI-1 [2]; peptide 3.5 mM, 25° C.): .28 h⁻¹ | t1/2 of PAI-1 inactivation (PAI-1 [2]; peptide 3.5 mM, 25° C.): 2.5 h | k (PAI-1 [2]; peptide 5.04 mM, 25° C.): .021 M⁻¹ s⁻¹ | t1/2 of PAI-1 inactivation (PAI-1 [2]; peptide 5.04 mM, 25° C.): 1.8 h | k (PAI-1 [2]; peptide 7 mM, 25° C.): .017 M⁻¹ s⁻¹ | kobs (PAI-1 [2]; peptide 7 mM, 25° C.): .44 h⁻¹ | t1/2 of PAI-1 inactivation (PAI-1 [2]; peptide 7 mM, 25° C.): 1.6 h | k (PAI-1 [2]; peptide 9 mM, 25° C.): .017 M⁻¹ s⁻¹ | kobs (PAI-1 [2]; peptide 9 mM, 25° C.): .54 h⁻¹ | t1/2 of PAI-1 inactivation (PAI-1 [2]; peptide 9 mM, 25° C.): 1.3 h | k (PAI-1 [2]; peptide 11 mM, 25° C.): .015 M⁻¹ s⁻¹ | kobs (PAI-1 [2]; peptide 11 mM, 25° C.): .58 h⁻¹ | t1/2 of PAI-1 inactivation (PAI-1 [2]; peptide 11 mM, 25° C.): 1.2 h

hirudin
effect of thrombus extracts on capacity to prolong the APTT (normal human plasma; hirudin 0.17 μg/mL): no effect | prolongation of the APTT (normal human plasma; hirudin 0.17 μg/mL): approximately twice

heparin
shortening of the APTT by thrombus extract (normal human plasma; 2.5 μL of thrombus extract per 100 μL of heparinized plasma): approximately 20 seconds | prolongation of the APTT (normal human plasma; heparin 0.12 U/mL): approximately 2 × control

Ac-TVASSSTA [SEQ ID NO: 2, Thr-Val-Ala-Ser-Ser-Ser-Thr-Ala]
IC50 (PAI-1 [1]): 230 µM | half-life of PAI-1 decreased to (PAI-1 [1]): 0.717 h | electrophoretic mobility of active PAI incubated with peptide, native gel (PAI-1 [3]): two bands | lowest PAI-1 functional half-life obtained with increasing concentrations of peptide (PAI-1 [2]; 25° C.): 0.7 h | t1/2 of PAI-1 (PAI-1 [2]; peptide 55 μM, 25° C.): over 400 min | k (PAI-1 [2]; peptide .015 mM, 25° C.): 1.7 M⁻¹ s⁻¹ | kobs (PAI-1 [2]; peptide .015 mM, 25° C.): .093 h⁻¹ | t1/2 of PAI-1 inactivation (PAI-1 [2]; peptide .015 mM, 25° C.): 7.5 h | k (PAI-1 [2]; peptide .025 mM, 25° C.): .99 M⁻¹ s⁻¹ | kobs (PAI-1 [2]; peptide .025 mM, 25° C.): .089 h⁻¹ | t1/2 of PAI-1 inactivation (PAI-1 [2]; peptide .025 mM, 25° C.): 7.8 h | k (PAI-1 [2]; peptide .045 mM, 25° C.): 6.9 M⁻¹ s⁻¹ | kobs (PAI-1 [2]; peptide .045 mM, 25° C.): 1.1 h⁻¹ | t1/2 of PAI-1 inactivation (PAI-1 [2]; peptide .045 mM, 25° C.): .62 h | k (PAI-1 [2]; peptide .064 mM, 25° C.): 42 M⁻¹ s⁻¹ | kobs (PAI-1 [2]; peptide .064 mM, 25° C.): 9.6 h⁻¹ | t1/2 of PAI-1 inactivation (PAI-1 [2]; peptide .064 mM, 25° C.): .072 h

Ac-TEASSSTA [SEQ ID NO: 3, Thr-Glu-Ala-Ser-Ser-Ser-Thr-Ala]
IC50 (PAI-1 [1]): 1600 µM | kobs (PAI-1 [1]; peptide .05 mM): .090 h⁻¹ | k (PAI-1 [1]; peptide .1 mM): .35 M⁻¹ s⁻¹ | kobs (PAI-1 [1]; peptide .246 mM): .33 h⁻¹ | k (PAI-1 [1]; peptide .4 mM): .33 M⁻¹ s⁻¹ | kobs (PAI-1 [1]; peptide .6 mM): .98 h⁻¹ | half-life of PAI-1 decreased to (PAI-1 [1]): 1.2 h | electrophoretic mobility of active PAI incubated with peptide, native gel (PAI-1 [3]): Only a single major band | lowest PAI-1 functional half-life obtained with increasing concentrations of peptide (PAI-1 [2]; 25° C.): 1.2 h | k (PAI-1 [2]; peptide .05 mM, 25° C.): .50 M⁻¹ s⁻¹ | t1/2 of PAI-1 inactivation (PAI-1 [2]; peptide .05 mM, 25° C.): 7.7 h | kobs (PAI-1 [2]; peptide .1 mM, 25° C.): .13 h⁻¹ | t1/2 of PAI-1 inactivation (PAI-1 [2]; peptide .1 mM, 25° C.): 5.5 h | k (PAI-1 [2]; peptide .15 mM, 25° C.): .37 M⁻¹ s⁻¹ | kobs (PAI-1 [2]; peptide .15 mM, 25° C.): .20 h⁻¹ | t1/2 of PAI-1 inactivation (PAI-1 [2]; peptide .15 mM, 25° C.): 3.5 h | k (PAI-1 [2]; peptide .2 mM, 25° C.): .40 M⁻¹ s⁻¹ | kobs (PAI-1 [2]; peptide .2 mM, 25° C.): .28 h⁻¹ | t1/2 of PAI-1 inactivation (PAI-1 [2]; peptide .2 mM, 25° C.): 2.4 h | k (PAI-1 [2]; peptide .246 mM, 25° C.): .37 M⁻¹ s⁻¹ | t1/2 of PAI-1 inactivation (PAI-1 [2]; peptide .246 mM, 25° C.): 2.1 h | k (PAI-1 [2]; peptide .3 mM, 25° C.): .39 M⁻¹ s⁻¹ | kobs (PAI-1 [2]; peptide .3 mM, 25° C.): .42 h⁻¹ | t1/2 of PAI-1 inactivation (PAI-1 [2]; peptide .3 mM, 25° C.): 1.7 h | kobs (PAI-1 [2]; peptide .4 mM, 25° C.): .48 h⁻¹ | t1/2 of PAI-1 inactivation (PAI-1 [2]; peptide .4 mM, 25° C.): 1.4 h | k (PAI-1 [2]; peptide .5 mM, 25° C.): .44 M⁻¹ s⁻¹ | kobs (PAI-1 [2]; peptide .5 mM, 25° C.): .79 h⁻¹ | t1/2 of PAI-1 inactivation (PAI-1 [2]; peptide .5 mM, 25° C.): .87 h | k (PAI-1 [2]; peptide .6 mM, 25° C.): .45 M⁻¹ s⁻¹ | t1/2 of PAI-1 inactivation (PAI-1 [2]; peptide .6 mM, 25° C.): .71 h

— patent publication US5639726A, “Peptide mediated enhancement of thrombolysis methods and compositions” (The Regents of the University of Michigan, priority 1994, dated 1997)
